Data published in the NIST ThermoML archive (doi:10.1021/je301147k).

Test: mn = molality of the nth substance listed, in mol/kg
Conditions: for electrical conductivity: 100 kPa, Liquid, CyberScan CON1500 Bench Conductivity Meter; for surface tension liquid-gas: 298.2 K, Ring tensiometer

CCCCCCCCCCCCn1cc[n+](C)c1.[I-] [1-dodecyl-3-methylimidazolium iodide] + O
electrical conductivity [S/m]
Conditions | 288.15 K | 293.15 K | 298.15 K | 303.15 K
m1 = 0.0005 | 0.00423 | 0.00497 | 0.00565 | 0.00618
m1 = 0.001 | 0.00828 | 0.00961 | 0.0108 | 0.0118
m1 = 0.002 | 0.0151 | 0.017 | 0.0191 | 0.0211
m1 = 0.003 | 0.0227 | 0.0255 | 0.0287 | 0.0316
m1 = 0.004 | 0.0292 | 0.0332 | 0.0373 | 0.0413
m1 = 0.005 | 0.0334 | 0.0388 | 0.0452 | 0.0506
m1 = 0.006 | 0.036 | 0.0418 | 0.0483 | 0.0552
m1 = 0.007 | 0.0368 | 0.0432 | 0.05 | 0.0579
m1 = 0.008 | 0.0378 | 0.0444 | 0.0516 | 0.0595
m1 = 0.009 | 0.0393 | 0.0459 | 0.0532 | 0.0614
m1 = 0.01 | 0.04 | 0.047 | 0.0543 | 0.0634
m1 = 0.011 | 0.0412 | 0.0485 | 0.0558 | 0.0653
m1 = 0.012 | 0.042 | 0.0502 | 0.0576 | 0.0672
m1 = 0.013 | 0.0425 | 0.0508 | 0.0589 | 0.0687
m1 = 0.014 | 0.0441 | 0.0519 | 0.06 | 0.0699
m1 = 0.015 | 0.0448 | 0.0535 | 0.0616 | 0.0712
m1 = 0.016 | 0.0458 | 0.0542 | 0.0631 | 0.0728
m1 = 0.017 | 0.0471 | 0.0556 | 0.0645 | 0.0739
m1 = 0.018 | 0.0483 | 0.0568 | 0.066 | 0.0758
m1 = 0.019 | 0.0489 | 0.0574 | 0.0667 | 0.0774
m1 = 0.02 | 0.0496 | 0.0582 | 0.0677 | 0.0784

Conditions | surface tension liquid-gas [mN/m]
m1 = 0.0001 | 69.81
m1 = 0.0005 | 65.15
m1 = 0.001 | 56.7
m1 = 0.002 | 46.92
m1 = 0.003 | 38.08
m1 = 0.004 | 33.49
m1 = 0.005 | 31.45
m1 = 0.006 | 31.48
m1 = 0.007 | 31.39
m1 = 0.009 | 31.5
m1 = 0.012 | 31.6
m1 = 0.016 | 31.57
m1 = 0.02 | 31.66

CCCCCCCCCCCC[n+]1ccn(C)c1.[Cl-] [1-dodecyl-3-methylimidazolium chloride] + O
electrical conductivity [S/m]
Conditions | 288.15 K | 293.15 K | 298.15 K | 303.15 K
m1 = 0.001 | 0.00787 | 0.00877 | 0.00992 | 0.0109
m1 = 0.002 | 0.0149 | 0.0166 | 0.0187 | 0.0207
m1 = 0.003 | 0.0219 | 0.0245 | 0.0273 | 0.0304
m1 = 0.004 | 0.0289 | 0.0324 | 0.0367 | 0.0408
m1 = 0.005 | 0.0355 | 0.0401 | 0.0448 | 0.0503
m1 = 0.006 | 0.0433 | 0.0481 | 0.054 | 0.0598
m1 = 0.007 | 0.0491 | 0.0548 | 0.0617 | 0.0687
m1 = 0.008 | 0.0562 | 0.0637 | 0.071 | 0.0787
m1 = 0.009 | 0.0633 | 0.0711 | 0.0795 | 0.0885
m1 = 0.01 | 0.0688 | 0.0778 | 0.0871 | 0.0961
m1 = 0.011 | 0.0764 | 0.0861 | 0.0964 | 0.107
m1 = 0.012 | 0.0832 | 0.0934 | 0.105 | 0.117
m1 = 0.013 | 0.0886 | 0.0991 | 0.112 | 0.124
m1 = 0.014 | 0.095 | 0.106 | 0.118 | 0.132
m1 = 0.015 | 0.1 | 0.112 | 0.126 | 0.14
m1 = 0.016 | 0.105 | 0.117 | 0.131 | 0.145
m1 = 0.017 | 0.107 | 0.12 | 0.136 | 0.15
m1 = 0.018 | 0.111 | 0.125 | 0.14 | 0.155
m1 = 0.019 | 0.115 | 0.129 | 0.144 | 0.16
m1 = 0.02 | 0.117 | 0.132 | 0.146 | 0.165
m1 = 0.021 | 0.12 | 0.135 | 0.15 | 0.169
m1 = 0.022 | 0.122 | 0.137 | 0.154 | 0.173
m1 = 0.023 | 0.125 | 0.141 | 0.158 | 0.178
m1 = 0.024 | 0.128 | 0.144 | 0.162 | 0.181
m1 = 0.025 | 0.131 | 0.147 | 0.166 | 0.185

Conditions | surface tension liquid-gas [mN/m]
m1 = 0.001 | 69.37
m1 = 0.002 | 63.46
m1 = 0.004 | 58.36
m1 = 0.006 | 53.85
m1 = 0.01 | 47.71
m1 = 0.014 | 43.05
m1 = 0.018 | 38.43
m1 = 0.02 | 38.26
m1 = 0.025 | 38.38
m1 = 0.03 | 38.61
m1 = 0.04 | 38.35
m1 = 0.05 | 38.55
